We go through 6 compounds from patent US10583146B2, “Pharmaceutical compositions for glucocorticoid replacement therapy” (Shire ViroPharma Incorporated, priority 2004, dated 2020).

Series [1] in a line: Equivalent doses of glucocorticoids (hydrocortisone equivalents) for systemic glucocorticoid therapy. The settings on record: per 1 mg of the glucocorticoid. How it is done: The term “hydrocortisone equivalents” is used herein to define the amount in mg of a specific glucocorticoid that corresponds to 1 mg of hydrocortisone for the purpose of systemic glucocorticoid therapy as generally understood by medical practitioners. The term is based on the fact that the individual glucocorticoids have different potencies and in order to achieve a desired therapeutic effect different doses of the individual glucocorticoids are required. Equivalent doses of the glucocorticoids can be calculated based on the following table.

For series [2] the following is noted: equivalent dose for systemic glucocorticoid therapy; cited from earlier work.
Series [3] can be described thus: In vivo plasma cortisol profile in healthy volunteers with suppressed endogenous glucocorticoid secretion. Set-up: species or system human. How it is done: The in vivo experiments reported herein were carried out on healthy volunteers. At 6 pm and 11 pm the day before administration of the test composition, the endogenous cortisol secretion was suppressed by oral administration of 2 mg of betamethasone.
The test composition was administered to healthy volunteers. The volunteers were in fasted state and were not allowed to take any food until noon. In the case a tablet is administered, it is ingested together with 200 ml of water. The test composition is administered between 8 am and 10 am on the day following the suppression of endogenous glucocorticoid secretion.
In vivo plasma profiles in humans, N=1 per composition
Dexamethasone suppression test, fasting state, otherwise as described in the paragraph denoted “Method”.
Two films were prepared essentially similar to Example 20—composition A. Film A contains 10 mg of hydrocortisone and film B contains 11.2 mg of hydrocortisone acetate.
The hydrocortisone compositions were tested in two human subjects after labial administration. The subjects had their endogenous glucocorticoid secretion suppressed by synthetic glucocorticoids. The plasma concentration of cortisol was monitored during 360 min after the labial administration, and the serum concentration time profiles from these two different subjects are shown in FIGS. 10 and 11.
The compositions were tested after oral administration to two human subjects (FIG. 12).

Take `C[C@]12C=CC(=O)C=C1CC[C@H]1[C@@H]3C[C@@H](O)[C@](O)(C(=O)CO)[C@@]3(C)C[C@H](O)[C@@]12F` [Triamcinolone]: the “Hydrocortisone equivalent (1 mg of the glucocorticoid corresponds to the listed amount in mg of hydrocortisone)” value (“Hydrocortisone equivalent” below) in series [1] stood at 5 mg. In series [2], the “Equivalent amount” value is 4 mg.
In the case of `C[C@]12C=CC(=O)C=C1CC[C@@H]1[C@@H]2[C@@H](O)C[C@@]2(C)[C@H]1CC[C@]2(O)C(=O)CO` [Prednisolone], the “Hydrocortisone equivalent” value in series [1] stood at 4 mg. Besides, in series [2], the “Equivalent amount” value is recorded as 5 mg.
Consider `C[C@@H]1C[C@H]2[C@@H]3C[C@H](F)C4=CC(=O)C=C[C@]4(C)[C@H]3[C@@H](O)C[C@]2(C)[C@@]1(O)C(=O)CO` [Paramethasone], for which the “Hydrocortisone equivalent” value in series [1] worked out at 10 mg. Besides, the “Equivalent amount” value in series [2] was 2 mg.
On to `C[C@]12CCC(=O)C=C1CC[C@@H]1[C@@H]2[C@@H](O)C[C@@]2(C)[C@H]1CC[C@]2(O)C(=O)CO` [Hydrocortisone], for which the “time at which the first measured plasma concentration of cortisol was attained” value in series [3] (Example 20 thin-layer film, 10 mg hydrocortisone, labial administration, two human subjects, FIGS. 10 and 11) lay within 10 to 15 min. In addition, in series [3] (Example 20 thin-layer film, labial administration, two human subjects), the “rate and extent of mucosal uptake” value is given as “high”. The “Hydrocortisone equivalent” value in series [1] is reported as 1 mg. For the same compound, in series [2], the “Equivalent amount” value is recorded as 20 mg.
With `CC(=O)OCC(=O)[C@@]1(O)CC[C@H]2[C@@H]3CCC4=CC(=O)CC[C@]4(C)[C@H]3[C@@H](O)C[C@@]21C` [hydrocortisone acetate], in series [3] (Example 18 thin-layer films, humans, N=1 per composition, fasting state, FIGS. 5-7), the “suitability for immediate release judged from in vivo plasma profiles” value is “does not seem to be suitable for an immediate release composition”.
`CC(=O)OCC(=O)[C@@]1(O)CC[C@H]2[C@@H]3CCC4=CC(=O)CC[C@]4(C)[C@H]3C(=O)C[C@@]21C` [Cortisone acetate]: the “Hydrocortisone equivalent” value in series [1] is reported as 0.8 mg. Besides, in series [2], the “Equivalent amount” value was 25 mg.
